Experimental data published in article PMC5919452 (Japanese Journal of Cancer Research : Gann, 1994).

What was measured:
erbB‐2 = erbB‐2 (Homo sapiens, UniProt P04626); assay: erbB-2 tyrosine kinase inhibition; type: biochemical; settings: read-out: IC50 for erbB‐2
protein kinase C = protein kinase C inhibition; type: biochemical; settings: read-out: IC50 for protein kinase C; serine/threonine kinase
p60^c‐src = p60^c‐src (Homo sapiens, UniProt P12931); assay: p60c-src tyrosine kinase inhibition; type: biochemical; settings: read-out: IC50 for p60^c‐src
[1] = system: cAMP‐dependent protein kinase; assay: cAMP-dependent protein kinase inhibition; type: biochemical; settings: 20 μM
p43^v‐abl = assay: p43v-abl tyrosine kinase inhibition; type: biochemical; settings: read-out: IC50 for p43^v‐abl
[2] = biological target: epidermal growth factor (EGF) receptor kinase (Homo sapiens, UniProt P00533); assay: EGF receptor kinase inhibition; type: biochemical; settings: read-out: IC50 for epidermal growth factor (EGF) receptor kinase
Cdc2 kinase = Cdc2 kinase (Homo sapiens, UniProt P06493); assay: Cdc2 kinase inhibition; type: biochemical; settings: 20 μM
insulin receptor kinase = insulin receptor kinase (Homo sapiens, UniProt P06213); assay: insulin receptor kinase inhibition; type: biochemical; settings: read-out: IC50 for insulin receptor kinase
EGF receptor [3] = biological target: T1, EGF receptor (Homo sapiens, UniProt P00533); assay: kinetic study of kinase inhibition; type: biochemical
casein kinase I = casein kinase I inhibition; type: biochemical; settings: 20 μM
casein kinase II = casein kinase II inhibition; type: biochemical; settings: 20 μM
EGF receptor [4] = biological target: T1, EGF receptor; assay: autophosphorylation of EGF receptor in A431 cells; type: cell-based

T1 sequence (P00533 25-1210): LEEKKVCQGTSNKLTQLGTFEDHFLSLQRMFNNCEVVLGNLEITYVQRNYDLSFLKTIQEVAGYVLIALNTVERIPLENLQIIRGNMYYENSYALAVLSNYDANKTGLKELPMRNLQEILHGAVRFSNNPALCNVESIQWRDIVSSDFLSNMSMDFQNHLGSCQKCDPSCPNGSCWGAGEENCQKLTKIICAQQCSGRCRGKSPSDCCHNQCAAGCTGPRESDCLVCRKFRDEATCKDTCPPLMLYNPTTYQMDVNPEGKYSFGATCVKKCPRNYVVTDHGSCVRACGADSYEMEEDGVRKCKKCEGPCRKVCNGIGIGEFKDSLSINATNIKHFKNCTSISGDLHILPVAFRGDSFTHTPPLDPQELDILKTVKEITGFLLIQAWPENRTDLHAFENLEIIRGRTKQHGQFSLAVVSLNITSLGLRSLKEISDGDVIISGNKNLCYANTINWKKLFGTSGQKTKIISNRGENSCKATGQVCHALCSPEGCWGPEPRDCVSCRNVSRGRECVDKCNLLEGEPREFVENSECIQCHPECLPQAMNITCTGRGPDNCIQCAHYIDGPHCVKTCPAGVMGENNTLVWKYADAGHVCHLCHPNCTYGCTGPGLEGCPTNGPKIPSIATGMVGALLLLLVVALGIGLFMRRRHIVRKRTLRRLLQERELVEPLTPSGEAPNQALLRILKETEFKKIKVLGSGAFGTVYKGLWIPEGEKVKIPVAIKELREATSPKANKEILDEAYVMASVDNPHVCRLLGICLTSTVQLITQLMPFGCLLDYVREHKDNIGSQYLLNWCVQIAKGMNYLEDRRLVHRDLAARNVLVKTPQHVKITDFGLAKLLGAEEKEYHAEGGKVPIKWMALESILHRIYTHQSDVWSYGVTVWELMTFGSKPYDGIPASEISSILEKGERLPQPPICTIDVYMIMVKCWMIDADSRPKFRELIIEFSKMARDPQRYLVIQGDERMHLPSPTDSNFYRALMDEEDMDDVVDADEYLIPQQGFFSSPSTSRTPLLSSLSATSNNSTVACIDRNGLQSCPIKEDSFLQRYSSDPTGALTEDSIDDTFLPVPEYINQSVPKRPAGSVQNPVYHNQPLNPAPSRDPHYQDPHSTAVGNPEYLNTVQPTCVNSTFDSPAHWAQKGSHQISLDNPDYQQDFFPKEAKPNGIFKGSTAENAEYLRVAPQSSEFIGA
Chain of erbB‐2 (P04626 23-1255, species assumed): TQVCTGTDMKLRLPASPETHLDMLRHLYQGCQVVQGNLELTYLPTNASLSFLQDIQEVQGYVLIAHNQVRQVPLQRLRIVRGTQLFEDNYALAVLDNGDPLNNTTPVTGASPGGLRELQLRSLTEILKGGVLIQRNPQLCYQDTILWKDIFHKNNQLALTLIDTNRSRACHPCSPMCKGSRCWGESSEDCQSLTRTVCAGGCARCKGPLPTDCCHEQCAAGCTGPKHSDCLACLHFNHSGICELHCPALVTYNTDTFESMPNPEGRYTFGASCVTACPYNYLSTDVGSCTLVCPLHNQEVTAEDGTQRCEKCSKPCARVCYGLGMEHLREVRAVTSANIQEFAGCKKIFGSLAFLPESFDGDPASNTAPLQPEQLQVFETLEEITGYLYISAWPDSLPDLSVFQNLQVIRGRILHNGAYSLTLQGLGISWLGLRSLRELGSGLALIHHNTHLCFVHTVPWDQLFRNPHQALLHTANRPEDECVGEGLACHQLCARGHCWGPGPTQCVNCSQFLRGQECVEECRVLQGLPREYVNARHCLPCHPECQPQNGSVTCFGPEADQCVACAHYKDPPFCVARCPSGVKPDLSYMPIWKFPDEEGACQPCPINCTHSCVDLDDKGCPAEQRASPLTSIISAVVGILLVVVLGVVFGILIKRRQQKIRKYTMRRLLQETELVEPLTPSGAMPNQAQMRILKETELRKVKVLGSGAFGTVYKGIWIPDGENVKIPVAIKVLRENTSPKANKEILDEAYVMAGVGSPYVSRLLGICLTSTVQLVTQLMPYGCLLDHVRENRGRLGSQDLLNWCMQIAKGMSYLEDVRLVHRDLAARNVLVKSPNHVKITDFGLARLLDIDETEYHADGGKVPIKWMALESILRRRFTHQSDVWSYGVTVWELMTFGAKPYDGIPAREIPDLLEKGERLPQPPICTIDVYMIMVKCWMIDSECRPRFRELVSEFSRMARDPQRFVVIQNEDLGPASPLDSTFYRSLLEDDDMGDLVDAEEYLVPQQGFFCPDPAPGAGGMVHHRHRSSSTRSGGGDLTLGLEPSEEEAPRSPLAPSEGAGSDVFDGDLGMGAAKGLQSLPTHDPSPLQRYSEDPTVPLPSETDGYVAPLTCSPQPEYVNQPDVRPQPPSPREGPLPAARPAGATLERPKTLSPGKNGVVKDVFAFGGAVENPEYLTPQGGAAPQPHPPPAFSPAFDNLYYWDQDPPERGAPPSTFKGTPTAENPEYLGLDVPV
Chain of Cdc2 kinase (P06493 whole entry): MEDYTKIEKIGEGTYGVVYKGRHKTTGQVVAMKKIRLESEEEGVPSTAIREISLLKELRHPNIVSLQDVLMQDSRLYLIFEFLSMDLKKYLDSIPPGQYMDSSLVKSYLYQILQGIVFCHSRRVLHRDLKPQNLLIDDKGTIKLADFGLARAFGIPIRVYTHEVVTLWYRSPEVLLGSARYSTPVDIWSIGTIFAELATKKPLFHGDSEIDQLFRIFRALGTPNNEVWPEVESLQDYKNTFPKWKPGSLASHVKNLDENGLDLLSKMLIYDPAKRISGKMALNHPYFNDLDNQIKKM
Chain of Cdc2 kinase (P14635 whole entry partner): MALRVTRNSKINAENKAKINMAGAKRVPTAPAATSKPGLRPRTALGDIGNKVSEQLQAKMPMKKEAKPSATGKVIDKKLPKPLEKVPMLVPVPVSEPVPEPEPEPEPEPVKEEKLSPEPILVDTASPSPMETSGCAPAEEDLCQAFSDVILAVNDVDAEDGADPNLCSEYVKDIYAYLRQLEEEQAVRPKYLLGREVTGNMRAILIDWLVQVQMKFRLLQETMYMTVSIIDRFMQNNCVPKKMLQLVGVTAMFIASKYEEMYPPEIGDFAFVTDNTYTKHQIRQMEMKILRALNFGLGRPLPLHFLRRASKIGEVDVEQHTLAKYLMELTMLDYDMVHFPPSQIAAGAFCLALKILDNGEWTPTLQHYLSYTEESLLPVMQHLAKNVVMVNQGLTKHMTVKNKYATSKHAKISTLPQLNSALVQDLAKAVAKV
Chain of epidermal growth factor (EGF) receptor kinase (P00533 25-1210): as the sequence (P00533 25-1210) above
Chain of p60^c‐src (P12931 whole entry): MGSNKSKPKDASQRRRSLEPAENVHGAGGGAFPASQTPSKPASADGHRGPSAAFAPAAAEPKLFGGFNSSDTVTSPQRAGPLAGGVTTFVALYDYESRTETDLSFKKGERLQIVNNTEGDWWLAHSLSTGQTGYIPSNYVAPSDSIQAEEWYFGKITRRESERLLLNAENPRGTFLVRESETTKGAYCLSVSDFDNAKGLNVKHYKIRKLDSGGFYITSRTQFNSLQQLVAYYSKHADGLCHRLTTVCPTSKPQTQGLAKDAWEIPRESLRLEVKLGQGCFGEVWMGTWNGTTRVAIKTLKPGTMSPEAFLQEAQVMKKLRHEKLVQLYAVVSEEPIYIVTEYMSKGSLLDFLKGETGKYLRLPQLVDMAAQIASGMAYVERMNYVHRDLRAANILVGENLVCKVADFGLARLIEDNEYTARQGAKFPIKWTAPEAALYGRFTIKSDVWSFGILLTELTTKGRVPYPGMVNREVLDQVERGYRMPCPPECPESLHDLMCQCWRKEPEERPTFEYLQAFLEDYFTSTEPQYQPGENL

SMILES: O=C1OC(c2ccc(O)c(O)c2)=C/C1=C\c1ccc(O)c(O)c1 [BE‐23372M]
- IC50 (erbB‐2): 0.42 µM
- IC50 (protein kinase C): 4.1 µM
- IC50 (p60^c‐src): 4.5 µM
- inhibition of cAMP‐dependent protein kinase [1]: not inhibited
- IC50 (p43^v‐abl): 1 µM
- IC50 [2]: 0.03 µM
- inhibition of Cdc2 kinase (Cdc2 kinase): not inhibited
- IC50 (insulin receptor kinase): 3.3 µM
- mode of inhibition with respect to ATP (EGF receptor [3]; ATP): competitive
- mode of inhibition with respect to the substrate peptide (EGF receptor [3]; substrate peptide): competitive
- inhibition of casein kinase I (casein kinase I): not inhibited
- inhibition of casein kinase II (casein kinase II): not inhibited
- Autophosphorylation of EGP receptor in A431 cells (EGF receptor [4]): inhibited
